pIC50: −log10 of the molar value.

For one assay, the target named is T1, Endothelin receptor type B (Bos taurus, UniProt P28088).
T1 sequence (P28088 whole entry): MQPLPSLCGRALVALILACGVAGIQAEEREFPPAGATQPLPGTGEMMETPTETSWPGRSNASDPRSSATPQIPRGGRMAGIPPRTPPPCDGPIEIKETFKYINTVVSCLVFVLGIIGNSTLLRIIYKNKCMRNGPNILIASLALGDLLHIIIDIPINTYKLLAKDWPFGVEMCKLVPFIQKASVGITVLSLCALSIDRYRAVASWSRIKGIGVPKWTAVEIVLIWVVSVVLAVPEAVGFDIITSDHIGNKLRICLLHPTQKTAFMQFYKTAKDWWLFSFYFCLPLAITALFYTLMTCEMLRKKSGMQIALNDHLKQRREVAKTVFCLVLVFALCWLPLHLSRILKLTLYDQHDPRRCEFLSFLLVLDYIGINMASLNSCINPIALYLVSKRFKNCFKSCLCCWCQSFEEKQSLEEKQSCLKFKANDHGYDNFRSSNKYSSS
Briefly: Binding activity to ET-B receptor on bovine cerebellum membrane. The assay is classed as tissue-based.
In the case of `C[C@@H]1NC(=O)[C@H]([C@@H](C)O)NC(=O)CNC(=O)[C@H](Cc2c[nH]cn2)NC(=O)[C@H](Cc2c[nH]c3ccccc23)NC(=O)[C@H](CC(N)=O)NC(=O)CNC(=O)[C@H](Cc2c[nH]c3ccccc23)NC(=O)[C@H](Cc2ccc(O)cc2)NC(=O)[C@H](Cc2ccc(O)cc2)NC(=O)[C@H](CC(N)=O)NC(=O)[C@H](Cc2ccccc2)NC(=O)[C@H](Cc2ccccc2)NC(=O)[C@H](Cc2c[nH]c3ccccc23)NC(=O)[C@H](CC(=O)O)NC(=O)[C@@H]2CCCN2C1=O`, the pIC50 was below 5.30.

As for `C[C@H](NC(=O)[C@@H](NC(=O)CNC(=O)[C@H](Cc1c[nH]cn1)NC(=O)[C@H](Cc1c[nH]c2ccccc12)NC(=O)[C@H](CC(N)=O)NC(=O)CN)[C@@H](C)O)C(=O)N1CCC[C@H]1C(=O)N[C@@H](CC(=O)O)C(=O)N[C@@H](Cc1c[nH]c2ccccc12)C(=O)N[C@@H](Cc1ccccc1)C(=O)N[C@@H](Cc1ccccc1)C(=O)N[C@@H](CC(N)=O)C(=O)N[C@@H](Cc1ccc(O)cc1)C(=O)N[C@@H](Cc1ccc(O)cc1)C(=O)N[C@@H](Cc1c[nH]c2ccccc12)C(=O)O`, the pIC50 was 5.30.

`CC[C@H](C)[C@H](NC(=O)[C@H](CC(=O)O)NC(=O)[C@H](CC(C)C)NC(=O)[C@H](Cc1cnc[nH]1)NC(=O)[C@@H]1CSSC[C@H](N)C(=O)N[C@@H](CO)C(=O)N[C@H]2CSSC[C@H](NC(=O)[C@H](CCC(=O)O)NC(=O)[C@H](CCCCN)NC(=O)[C@H](CC(=O)O)NC(=O)[C@H](CCSC)NC(=O)[C@H](CC(C)C)NC(=O)[C@H](CO)NC(=O)[C@H](CO)NC2=O)C(=O)N[C@@H](C(C)C)C(=O)N[C@@H](Cc2ccc(O)cc2)C(=O)N[C@@H](Cc2ccccc2)C(=O)N1)C(=O)N[C@H](C(=O)N[C@@H](Cc1c[nH]c2ccccc12)C(=O)O)[C@@H](C)CC` [ENDOTHELIN] had a pIC50 of 6.00.

In turn, H-LYFCHQDVIW-OH gave a pIC50 of 5.52.

The compound H-VYFSHLDIIW-OH gave a negative-log IC50 (pIC50) of 6.00.

H-VYYCHLDIIW-OH gave a pIC50 of 5.52.

The compound H-WFFNYYW-OH gave a pIC50 of 5.52.

The target of the next assay is T2, Endothelin-1 receptor (Bos taurus, UniProt P21450).
T2 sequence (P21450 whole entry): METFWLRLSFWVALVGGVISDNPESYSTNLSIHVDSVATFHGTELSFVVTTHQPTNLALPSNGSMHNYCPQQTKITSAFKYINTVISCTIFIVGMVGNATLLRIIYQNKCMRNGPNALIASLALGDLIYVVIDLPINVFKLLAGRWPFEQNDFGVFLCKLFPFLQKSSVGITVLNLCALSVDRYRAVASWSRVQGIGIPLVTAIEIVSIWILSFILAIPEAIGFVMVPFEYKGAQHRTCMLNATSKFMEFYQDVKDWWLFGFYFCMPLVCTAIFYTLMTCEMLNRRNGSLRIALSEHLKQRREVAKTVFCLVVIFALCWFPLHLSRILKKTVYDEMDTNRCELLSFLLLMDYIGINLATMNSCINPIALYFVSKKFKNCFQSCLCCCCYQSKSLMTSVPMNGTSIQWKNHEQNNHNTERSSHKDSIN
Briefly: Binding activity to ET-A receptor on bovine lung membrane was determined. The class given is tissue-based.
Consider `CC[C@H](C)[C@H](NC(=O)[C@H](CC(=O)O)NC(=O)[C@H](CC(C)C)NC(=O)[C@H](Cc1c[nH]cn1)NC(=O)[C@H](C)NC(=O)[C@H](Cc1ccccc1)NC(=O)[C@H](Cc1ccc(O)cc1)NC(=O)[C@@H](NC(=O)[C@H](Cc1c[nH]c2ccccc12)NC(=O)[C@@H]1CC(=O)NCC(=O)N[C@@H](CC(N)=O)C(=O)N[C@@H](Cc2c[nH]c3ccccc23)C(=O)N[C@@H](Cc2c[nH]cn2)C(=O)NCC(=O)N[C@@H]([C@@H](C)O)C(=O)N[C@@H](C)C(=O)N2CCC[C@H]2C(=O)N1)C(C)C)C(=O)N[C@H](C(=O)N[C@@H](Cc1c[nH]c2ccccc12)C(=O)O)[C@@H](C)CC`, for which the pIC50 was below 7.00.

The compound `C[C@@H]1NC(=O)[C@H]([C@@H](C)O)NC(=O)CNC(=O)[C@H](Cc2c[nH]cn2)NC(=O)[C@H](Cc2c[nH]c3ccccc23)NC(=O)[C@H](CC(N)=O)NC(=O)CNC(=O)C[C@@H](C(=O)N[C@@H](Cc2c[nH]c3ccccc23)C(=O)N[C@@H](Cc2ccccc2)C(=O)N[C@@H](Cc2ccccc2)C(=O)N[C@@H](CC(N)=O)C(=O)N[C@@H](Cc2ccc(O)cc2)C(=O)N[C@@H](Cc2ccc(O)cc2)C(=O)N[C@@H](Cc2c[nH]c3ccccc23)C(=O)O)NC(=O)[C@@H]2CCCN2C1=O` had a pIC50 below 5.30.

Turning to `CC[C@H](C)[C@H](NC(=O)[C@@H](NC(=O)[C@H](CC(=O)O)NC(=O)[C@H](CCC(N)=O)NC(=O)[C@H](Cc1c[nH]cn1)NC(=O)[C@H](C)NC(=O)[C@H](Cc1ccccc1)NC(=O)[C@H](Cc1ccc(O)cc1)NC(=O)[C@H](CC(C)C)NC(=O)[C@H](Cc1c[nH]c2ccccc12)NC(=O)[C@@H]1CC(=O)NCC(=O)N[C@@H](CC(N)=O)C(=O)N[C@@H](Cc2c[nH]c3ccccc23)C(=O)N[C@@H](Cc2c[nH]cn2)C(=O)NCC(=O)N[C@@H]([C@@H](C)O)C(=O)N[C@@H](C)C(=O)N2CCC[C@H]2C(=O)N1)C(C)C)C(=O)N[C@@H](Cc1c[nH]c2ccccc12)C(=O)O`, the pIC50 was below 7.00.

As to `CC[C@H](C)[C@H](NC(=O)[C@H](CC(=O)O)NC(=O)[C@H](CC(C)C)NC(=O)[C@H](Cc1c[nH]cn1)NC(=O)[C@H](C)NC(=O)[C@H](Cc1ccc(O)cc1)NC(=O)[C@H](Cc1ccc(O)cc1)NC(=O)[C@@H](NC(=O)[C@H](Cc1c[nH]c2ccccc12)NC(=O)[C@@H]1CC(=O)NCC(=O)N[C@@H](CC(N)=O)C(=O)N[C@@H](Cc2c[nH]c3ccccc23)C(=O)N[C@@H](Cc2c[nH]cn2)C(=O)NCC(=O)N[C@@H]([C@@H](C)O)C(=O)N[C@@H](C)C(=O)N2CCC[C@H]2C(=O)N1)C(C)C)C(=O)N[C@H](C(=O)N[C@@H](Cc1c[nH]c2ccccc12)C(=O)O)[C@@H](C)CC`, the pIC50 is below 7.00.

By pIC50 is commonly meant the negative decadic logarithm of the IC50, by convention in mol/L. Low values mean a large IC50, high ones a small IC50.

Values taken from ChEMBL document CHEMBL1130471, “RES-701-1/endothelin-1 hybrid peptide having a potent binding activity for type B receptor” (Bioorg Med Chem Lett, 1997).
